Reference: patent US11964941B2, “5-Bromo-indirubins” (City of Hope, priority 2014, dated 2024)

Legend:
A2058 melanoma cells = assay: MTS cell viability, A2058 melanoma cells; assay type: cell-based, human; details: 48 h, read-out: IC50 for 50% inhibition of viability
Experimental: (§1) MTS assays were performed for cell viability. Human cancer cells were seeded in 96-well plates (2500 cells/well for solid tumors, 5000 cells/well for blood tumors), incubated overnight at 37 C in 5% CO2, and exposed to 5IN-1NH1 or 5IN-1NH1s in a dose-dependent manner for 48 h. See FIGS. 1A-1B, 2A-2B, 3, 4A-4B, and 6A-6B. Dimethyl sulfoxide (DMSO) was used as the vehicle control. Viable cell numbers were determined by tetrazolium conversion to its formazan dye and absorbance was measured at 490 nm using an automated ELISA plate reader. Each experiment was performed in quadruplicate. IC50 values were determined using CalcuSyn software (BIOSOFT®, Cambridge GB).

[1] = test system: DU145 prostate cancer cells; assay: MTS cell viability, DU145 prostate cancer cells; assay type: cell-based, human; details: 48 h, read-out: IC50 for 50% inhibition of viability
Experimental: as §1

A549 lung cancer cells = assay: MTS cell viability, A549 lung cancer cells; assay type: cell-based, human; details: 48 h, read-out: IC50 for 50% inhibition of viability
Experimental: as §1

[2] = test system: MDA-MB-231 breast cancer cells; assay: MTS cell viability, MDA-MB-231 breast cancer cells; assay type: cell-based, human; details: 48 h, read-out: IC50 for 50% inhibition of viability
Experimental: as §1

[3] = test system: SKOV3 ovarian cancer cells; assay: MTS cell viability, SKOV3 ovarian cancer cells; assay type: cell-based, human; details: 48 h, read-out: IC50 for 50% inhibition of viability
Experimental: as §1

MV4-11 AML cells = assay: MTS cell viability, MV4-11 AML cells (FLT3-ITD); assay type: cell-based, human; details: 48 h, read-out: IC50 for 50% inhibition of viability
Experimental: as §1
(§2) Compound (1289) inhibits viabilities of MV4-11 and MOLM13 AML cells that harbor an internal tandem duplication (ITD) mutation. MTS assays were performed for cell viability. Human MV4-11 and MOLM13 AML cells (5000/well) were seeded in 96-well plates, incubated overnight at 37° C. in 5% CO2, and exposed to compound (1289) in a dose-dependent manner for 48 h. Dimethyl sulfoxide (DMSO) was used as the vehicle control. Viable cell numbers were determined by tetrazolium conversion to its formazan dye and absorbance was measured at 490 nm using an automated ELISA plate reader. Each experiment was performed in quadruplicate. IC50 values were determined using CalcuSyn software.

MOLM13 AML cells = assay: MTS cell viability, MOLM13 AML cells (FLT3-ITD); assay type: cell-based, human; details: 48 h, read-out: IC50 for 50% inhibition of viability
Experimental: as §1, §2

KCL22 CML cells = assay: MTS cell viability, KCL22 CML cells; assay type: cell-based, human; details: 48 h, read-out: IC50 for 50% inhibition of viability
Experimental: as §1

[4] = test system: T315I ABL1 mutant KCL22 CML cells; assay: MTS cell viability, T315I ABL1 mutant KCL22 CML cells; assay type: cell-based, human; details: T315I ABL1 mutant KCL22 CML cells, MTS, 48 h; read-out: IC50 for 50% inhibition of viability
Experimental: as §1
Human DU145 prostate cancer, A2058 melanoma, SKOV3 ovarian cancer and T315I ABL1 mutant KCL22 CML cells were seeded in 96-well plates (2500 cells/well for solid tumors, 5000 cells/well for blood tumors), incubated overnight at 37° C. in 5% CO2, and exposed to 5IN-6NC1, 5IN-1NH1, 5IN-6NNC6, or 5IN-6NNC7 in a dose-dependent manner for 48 h. Dimethyl sulfoxide (DMSO) was used as the vehicle control. Viable cell numbers were determined by tetrazolium conversion to its formazan dye and absorbance was measured at 490 nm using an automated ELISA plate reader. Each experiment was performed in quadruplicate. IC50 values were determined using CalcuSyn software.

FLT3 [5] = target: FLT3 (Homo sapiens, UniProt P36888); assay: In vitro kinase assay, recombinant FLT3; assay type: biochemical; details: recombinant FLT3, 33P-ATP, 120 min
Experimental: (§3) The kinase assays were performed with recombinant class III receptor tyrosine kinase family proteins. Briefly, proteins, freshly prepared substrates and ^33P-ATP (specific activity 0.01 μCi/μl final) were mixed in reaction buffer (20 mM HEPES pH 7.5, 10 mM MgCl2, 1 mM EGTA, 0.02% Brij35, 0.02 mg/ml BSA, 0.1 mM Na3VO4, 2 mM DTT) in the presence of DMSO as control or 5IN-1NH1s. The mixtures were reacted for 120 min at room temperature. Samples were transferred onto P81 ion exchange paper and filters were extensively washed with 0.75% phosphoric acid. The radioactivities were monitored. IC50 values were determined using GraphPad Prism software.
as §3, with “Kinase” for “The kinase”, “FLT3, mutated FLT3-ITD and D835I mutant FLT3 kinases.” for “class III receptor tyrosine kinase family proteins.”, “compound (1289).” for “5IN-1NH1s.”

FLT3 [6] = assay: In vitro kinase assay, recombinant FLT3; assay type: biochemical; details: recombinant class III receptor tyrosine kinase family proteins
Experimental: as §3
as §3, with “Kinase” for “The kinase”, “FLT3, mutated FLT3-ITD and D835I mutant FLT3 kinases.” for “class III receptor tyrosine kinase family proteins.”, “compound (1289).” for “5IN-1NH1s.”

FLT3 (D835Y) = FLT3 (D835Y) (Homo sapiens, UniProt P36888, D835Y); assay: In vitro kinase assay, recombinant FLT3 (D835Y); assay type: biochemical; details: 33P-ATP, 120 min
Experimental: as §3
as §3, with “Kinase” for “The kinase”, “FLT3, mutated FLT3-ITD and D835I mutant FLT3 kinases.” for “class III receptor tyrosine kinase family proteins.”, “compound (1289).” for “5IN-1NH1s.”

FLT3 (ITD) = FLT3 (ITD) (Homo sapiens, UniProt P36888); assay: In vitro kinase assay, recombinant FLT3 (ITD); assay type: biochemical; details: 33P-ATP, 120 min
Experimental: as §3
as §3, with “Kinase” for “The kinase”, “FLT3, mutated FLT3-ITD and D835I mutant FLT3 kinases.” for “class III receptor tyrosine kinase family proteins.”, “compound (1289).” for “5IN-1NH1s.”

c-KIT = c-KIT (Homo sapiens, UniProt P10721); assay: In vitro kinase assay, recombinant c-KIT; assay type: biochemical; details: 33P-ATP, 120 min
Sequence of c-KIT (P10721 26-976): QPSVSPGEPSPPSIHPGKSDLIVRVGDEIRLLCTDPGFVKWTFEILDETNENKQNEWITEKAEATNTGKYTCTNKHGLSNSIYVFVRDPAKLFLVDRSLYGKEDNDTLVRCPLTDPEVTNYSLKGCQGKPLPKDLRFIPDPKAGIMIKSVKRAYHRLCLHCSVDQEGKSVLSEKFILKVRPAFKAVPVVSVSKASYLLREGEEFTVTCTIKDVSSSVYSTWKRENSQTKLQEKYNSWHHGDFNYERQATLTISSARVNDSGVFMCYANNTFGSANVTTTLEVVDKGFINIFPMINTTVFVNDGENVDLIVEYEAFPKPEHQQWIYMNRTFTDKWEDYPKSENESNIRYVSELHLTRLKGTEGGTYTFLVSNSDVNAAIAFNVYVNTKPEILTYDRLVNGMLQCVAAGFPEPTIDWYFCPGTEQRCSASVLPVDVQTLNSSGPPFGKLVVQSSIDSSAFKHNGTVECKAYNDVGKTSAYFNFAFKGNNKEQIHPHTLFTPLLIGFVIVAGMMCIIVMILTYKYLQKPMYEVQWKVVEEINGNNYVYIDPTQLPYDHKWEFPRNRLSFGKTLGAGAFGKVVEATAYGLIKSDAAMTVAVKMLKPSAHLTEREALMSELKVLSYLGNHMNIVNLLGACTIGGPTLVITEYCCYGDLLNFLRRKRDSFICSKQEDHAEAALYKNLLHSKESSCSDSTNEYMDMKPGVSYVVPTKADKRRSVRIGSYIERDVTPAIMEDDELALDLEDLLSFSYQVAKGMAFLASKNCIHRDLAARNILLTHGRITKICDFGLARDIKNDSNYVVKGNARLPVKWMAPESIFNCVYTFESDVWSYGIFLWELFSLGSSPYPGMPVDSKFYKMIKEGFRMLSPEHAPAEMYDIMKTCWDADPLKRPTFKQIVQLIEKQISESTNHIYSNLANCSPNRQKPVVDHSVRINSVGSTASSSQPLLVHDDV
Experimental: (§4) Compound (1289) inhibits activities of FMS, PDGFR α, PDGFR β and c-KIT in vitro. The kinase assays were performed with recombinant FMS, PDGFR α, PDGFR β and c-KIT proteins. Briefly, proteins, freshly prepared substrates and ^33P-ATP (specific activity 0.01 μCi/μl final) were mixed in reaction buffer (20 mM HEPES pH 7.5, 10 mM MgCl2, 1 mM EGTA, 0.02% Brij35, 0.02 mg/ml BSA, 0.1 mM Na3VO4, 2 mM DTT) in the presence of DMSO as control or compound (1289). The mixtures were reacted for 120 min at room temperature. Samples were transferred onto P81 ion exchange paper and filters were extensively washed with 0.75% phosphoric acid. The radioactivities were monitored.
as §3

FMS = FMS (Homo sapiens, UniProt P07333); assay: In vitro kinase assay, recombinant FMS; assay type: biochemical; details: 33P-ATP, 120 min
Sequence of FMS (P07333 20-972, species assumed): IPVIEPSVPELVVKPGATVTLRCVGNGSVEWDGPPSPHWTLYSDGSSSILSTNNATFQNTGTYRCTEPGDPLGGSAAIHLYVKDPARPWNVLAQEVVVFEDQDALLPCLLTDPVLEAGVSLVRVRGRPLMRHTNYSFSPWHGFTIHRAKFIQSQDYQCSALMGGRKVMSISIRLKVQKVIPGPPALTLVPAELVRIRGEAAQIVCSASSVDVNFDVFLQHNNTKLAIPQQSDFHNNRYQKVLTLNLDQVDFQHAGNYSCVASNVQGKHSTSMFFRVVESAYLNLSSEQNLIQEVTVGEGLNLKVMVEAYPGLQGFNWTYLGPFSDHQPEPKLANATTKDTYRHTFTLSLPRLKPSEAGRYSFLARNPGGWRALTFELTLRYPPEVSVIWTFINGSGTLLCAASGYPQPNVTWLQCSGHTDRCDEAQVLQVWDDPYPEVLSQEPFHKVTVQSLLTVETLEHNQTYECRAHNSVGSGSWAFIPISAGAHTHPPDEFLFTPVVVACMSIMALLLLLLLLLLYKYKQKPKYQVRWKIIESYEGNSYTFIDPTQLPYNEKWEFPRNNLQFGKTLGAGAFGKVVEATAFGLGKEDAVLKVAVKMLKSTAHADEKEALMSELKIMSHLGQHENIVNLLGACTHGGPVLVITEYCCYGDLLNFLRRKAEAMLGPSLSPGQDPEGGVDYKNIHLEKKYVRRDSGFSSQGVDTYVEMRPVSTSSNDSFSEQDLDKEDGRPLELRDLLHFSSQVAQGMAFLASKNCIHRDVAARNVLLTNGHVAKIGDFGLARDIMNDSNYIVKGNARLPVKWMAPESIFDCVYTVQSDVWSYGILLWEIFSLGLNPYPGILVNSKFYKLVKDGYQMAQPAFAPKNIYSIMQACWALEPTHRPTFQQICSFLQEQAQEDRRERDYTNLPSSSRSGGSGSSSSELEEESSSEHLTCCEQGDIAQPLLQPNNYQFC
Experimental: as §4, §3

PDGFR α = PDGFR α (Homo sapiens, UniProt P16234); assay: In vitro kinase assay, recombinant PDGFR α; assay type: biochemical; details: 33P-ATP, 120 min
Sequence of PDGFR α (P16234 24-1089, species assumed): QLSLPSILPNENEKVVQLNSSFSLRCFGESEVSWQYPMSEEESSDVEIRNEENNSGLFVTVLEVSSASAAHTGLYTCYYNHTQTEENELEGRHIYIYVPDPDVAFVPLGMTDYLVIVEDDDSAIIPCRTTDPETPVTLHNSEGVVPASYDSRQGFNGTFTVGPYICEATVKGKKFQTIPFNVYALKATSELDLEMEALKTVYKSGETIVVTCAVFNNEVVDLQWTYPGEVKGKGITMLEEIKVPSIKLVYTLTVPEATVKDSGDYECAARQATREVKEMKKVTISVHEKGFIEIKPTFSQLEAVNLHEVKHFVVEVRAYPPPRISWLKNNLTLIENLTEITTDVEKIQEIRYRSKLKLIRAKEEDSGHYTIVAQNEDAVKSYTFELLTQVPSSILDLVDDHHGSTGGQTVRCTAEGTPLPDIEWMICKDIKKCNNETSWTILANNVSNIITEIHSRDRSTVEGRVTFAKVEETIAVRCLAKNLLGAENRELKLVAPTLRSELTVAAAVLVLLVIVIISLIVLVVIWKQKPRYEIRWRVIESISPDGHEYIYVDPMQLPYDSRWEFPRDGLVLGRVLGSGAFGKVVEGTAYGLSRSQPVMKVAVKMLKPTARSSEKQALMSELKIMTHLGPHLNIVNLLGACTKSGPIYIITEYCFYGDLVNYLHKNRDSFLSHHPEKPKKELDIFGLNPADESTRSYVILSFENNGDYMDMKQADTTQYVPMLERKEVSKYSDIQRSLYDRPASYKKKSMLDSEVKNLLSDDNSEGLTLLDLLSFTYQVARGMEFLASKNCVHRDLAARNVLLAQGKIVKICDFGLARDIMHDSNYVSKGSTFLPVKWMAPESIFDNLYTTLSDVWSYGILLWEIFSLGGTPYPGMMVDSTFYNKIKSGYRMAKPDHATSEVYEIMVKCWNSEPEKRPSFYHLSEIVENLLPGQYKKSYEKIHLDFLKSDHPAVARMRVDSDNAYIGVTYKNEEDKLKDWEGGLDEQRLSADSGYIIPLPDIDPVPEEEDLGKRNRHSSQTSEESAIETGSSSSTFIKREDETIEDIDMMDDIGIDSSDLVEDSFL
Experimental: as §4, §3

PDGFR β = PDGFR β (Homo sapiens, UniProt P09619); assay: In vitro kinase assay, recombinant PDGFR β; assay type: biochemical; details: 33P-ATP, 120 min
Experimental: as §4, §3

ABL1 = ABL1 (Homo sapiens, UniProt P00519); assay: Kinase profiling in vitro, ABL1; assay type: biochemical; details: recombinant ABL1, 33P-ATP, 120 min
Experimental: as §3, with “recombinant” for “recombinant class III receptor tyrosine kinase family”

ABL1 (T315I) = ABL1 (T315I) (Homo sapiens, UniProt P00519, T315I); assay: Kinase profiling in vitro, ABL1 (T315I); assay type: biochemical; details: recombinant ABL1 (T315I), 33P-ATP, 120 min
Experimental: as §3, with “recombinant” for “recombinant class III receptor tyrosine kinase family”

AKT1 = AKT1 (Homo sapiens, UniProt P31749); assay: Kinase profiling in vitro, AKT1; assay type: biochemical; details: recombinant AKT1, 33P-ATP, 120 min
Sequence of AKT1 (P31749 whole entry, species assumed): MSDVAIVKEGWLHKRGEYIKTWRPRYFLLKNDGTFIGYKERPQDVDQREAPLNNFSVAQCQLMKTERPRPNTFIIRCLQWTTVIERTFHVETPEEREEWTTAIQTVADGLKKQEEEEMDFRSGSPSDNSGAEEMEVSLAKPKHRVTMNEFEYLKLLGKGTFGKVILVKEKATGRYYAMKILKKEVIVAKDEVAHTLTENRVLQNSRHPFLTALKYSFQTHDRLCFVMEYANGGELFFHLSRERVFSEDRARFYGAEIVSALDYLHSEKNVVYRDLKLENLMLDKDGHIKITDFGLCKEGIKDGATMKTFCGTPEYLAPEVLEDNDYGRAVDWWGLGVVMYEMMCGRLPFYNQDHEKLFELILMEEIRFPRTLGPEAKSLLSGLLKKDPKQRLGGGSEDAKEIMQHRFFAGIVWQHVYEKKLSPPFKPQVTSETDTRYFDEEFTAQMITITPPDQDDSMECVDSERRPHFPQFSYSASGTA
Experimental: as §3, with “recombinant” for “recombinant class III receptor tyrosine kinase family”

Aurora A = Aurora A (Homo sapiens, UniProt O14965); assay: Kinase profiling in vitro, Aurora A; assay type: biochemical; details: recombinant Aurora A, 33P-ATP, 120 min
Sequence of Aurora A (O14965 whole entry): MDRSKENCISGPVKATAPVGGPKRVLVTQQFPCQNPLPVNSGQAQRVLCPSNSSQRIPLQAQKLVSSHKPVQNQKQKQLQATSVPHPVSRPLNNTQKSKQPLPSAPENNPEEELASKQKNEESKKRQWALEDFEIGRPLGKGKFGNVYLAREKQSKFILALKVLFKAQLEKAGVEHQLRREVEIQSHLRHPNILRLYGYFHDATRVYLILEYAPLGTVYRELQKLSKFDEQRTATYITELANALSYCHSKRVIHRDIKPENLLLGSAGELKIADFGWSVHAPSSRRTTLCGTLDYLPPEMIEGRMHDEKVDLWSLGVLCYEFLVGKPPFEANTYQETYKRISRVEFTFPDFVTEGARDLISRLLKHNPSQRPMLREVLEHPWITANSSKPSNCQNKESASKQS
Experimental: as §3, with “recombinant” for “recombinant class III receptor tyrosine kinase family”

BRAF = BRAF (Homo sapiens, UniProt P15056); assay: Kinase profiling in vitro, BRAF; assay type: biochemical; details: recombinant BRAF, 33P-ATP, 120 min
Experimental: as §3, with “recombinant” for “recombinant class III receptor tyrosine kinase family”

c-Src = c-Src (Homo sapiens, UniProt P12931); assay: Kinase profiling in vitro, c-Src; assay type: biochemical; details: recombinant c-Src, 33P-ATP, 120 min
Sequence of c-Src (P12931 whole entry, species assumed): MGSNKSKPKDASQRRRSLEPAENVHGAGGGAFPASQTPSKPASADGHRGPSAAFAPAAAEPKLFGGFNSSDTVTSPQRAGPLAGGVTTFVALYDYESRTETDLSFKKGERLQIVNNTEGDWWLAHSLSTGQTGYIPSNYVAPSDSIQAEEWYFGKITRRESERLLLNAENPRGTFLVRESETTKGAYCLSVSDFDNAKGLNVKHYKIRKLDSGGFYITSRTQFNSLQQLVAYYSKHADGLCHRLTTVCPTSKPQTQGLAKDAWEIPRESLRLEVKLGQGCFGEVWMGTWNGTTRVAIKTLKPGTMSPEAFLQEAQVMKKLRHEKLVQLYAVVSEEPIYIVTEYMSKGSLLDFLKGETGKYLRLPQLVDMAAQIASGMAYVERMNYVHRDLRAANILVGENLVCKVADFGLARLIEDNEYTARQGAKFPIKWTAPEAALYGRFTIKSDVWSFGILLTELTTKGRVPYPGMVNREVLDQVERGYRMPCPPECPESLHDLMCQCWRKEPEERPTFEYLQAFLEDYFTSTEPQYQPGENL
Experimental: as §3, with “recombinant” for “recombinant class III receptor tyrosine kinase family”

CDK2/cyclin A = CDK2/cyclin A (Homo sapiens, UniProt P24941); assay: Kinase profiling in vitro, CDK2/cyclin A; assay type: biochemical; details: recombinant CDK2/cyclin A, 33P-ATP, 120 min
Experimental: as §3, with “recombinant” for “recombinant class III receptor tyrosine kinase family”

GSK3β = GSK3β (Homo sapiens, UniProt P49841); assay: Kinase profiling in vitro, GSK3β; assay type: biochemical; details: recombinant GSK3β, 33P-ATP, 120 min
Sequence of GSK3β (P49841 whole entry, species assumed): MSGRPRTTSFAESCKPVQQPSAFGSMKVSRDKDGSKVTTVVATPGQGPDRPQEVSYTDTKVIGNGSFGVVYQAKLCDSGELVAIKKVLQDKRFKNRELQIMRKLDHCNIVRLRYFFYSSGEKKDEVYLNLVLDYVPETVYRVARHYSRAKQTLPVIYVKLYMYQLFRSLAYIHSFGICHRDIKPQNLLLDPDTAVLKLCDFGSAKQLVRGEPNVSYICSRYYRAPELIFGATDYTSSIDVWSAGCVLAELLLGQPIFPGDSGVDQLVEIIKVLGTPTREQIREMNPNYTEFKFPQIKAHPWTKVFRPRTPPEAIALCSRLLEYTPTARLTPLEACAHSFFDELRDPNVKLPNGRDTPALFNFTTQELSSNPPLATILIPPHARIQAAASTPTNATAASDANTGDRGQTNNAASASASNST
Experimental: as §3, with “recombinant” for “recombinant class III receptor tyrosine kinase family”

IGF1R = IGF1R (Homo sapiens, UniProt P08069); assay: Kinase profiling in vitro, IGF1R; assay type: biochemical; details: recombinant IGF1R, 33P-ATP, 120 min
Experimental: as §3, with “recombinant” for “recombinant class III receptor tyrosine kinase family”

JAK2 = JAK2 (Homo sapiens, UniProt O60674); assay: Kinase profiling in vitro, JAK2; assay type: biochemical; details: recombinant JAK2, 33P-ATP, 120 min
Experimental: as §3, with “recombinant” for “recombinant class III receptor tyrosine kinase family”

KDR/vEGFR2 = KDR/vEGFR2 (Homo sapiens, UniProt P35968); assay: Kinase profiling in vitro, KDR/vEGFR2; assay type: biochemical; details: recombinant KDR/vEGFR2, 33P-ATP, 120 min
Experimental: as §3, with “recombinant” for “recombinant class III receptor tyrosine kinase family”

Work on `CNCCO/N=C1/C(=C2/C(=O)Nc3ccc(Br)cc32)Nc2ccccc21` [5IN-1NH1s] yielded an IC50 (A2058 melanoma cells) of 0.0889 µM, an IC50 [1] of 0.0447 µM and an IC50 (A549 lung cancer cells) of 0.0461 µM. The IC50 [2] was 0.033 µM, the IC50 [3] was 0.169 µM and the IC50 (MV4-11 AML cells) was 0.0037 µM. It also gave an IC50 (MOLM13 AML cells) of 0.0075 µM, an IC50 (KCL22 CML cells) of 0.0728 µM and an IC50 [4] of 0.0527 µM. For the same molecule, the IC50 (FLT3 [5]) was 0.00139 µM, the “selectivity for FLT3 and mutated FLT3 kinases within class III receptor tyrosine kinase family” value (FLT3 [6]) was “selectively inhibits” and the IC50 (FLT3 (D835Y)) was under 0.0005 µM. For the same molecule, the IC50 (FLT3 (ITD)) was 0.00109 µM, the IC50 (c-KIT) was 0.321 µM and the IC50 (FMS) was 0.016 µM. It also gave an IC50 (PDGFR α) of 0.0722 µM, an IC50 (PDGFR β) of 0.0091 µM and an IC50 (ABL1) of 0.434 µM. For the same molecule, the IC50 (ABL1 (T315I)) was 3.4 µM, the IC50 (AKT1) was 0.327 µM and the IC50 (Aurora A) was 0.217 µM. It also gave an IC50 (BRAF) of 7.41 µM, an IC50 (c-Src) of 0.0138 µM and an IC50 (CDK2/cyclin A) of 0.00108 µM. The IC50 (GSK3β) was 0.00118 µM, the IC50 (IGF1R) was 0.0318 µM and the IC50 (JAK2) was 0.169 µM. It also gave an IC50 (KDR/vEGFR2) of 0.245 µM.
